These results are taken from publication PMC8787488, “Two-Metal Ion-Dependent Enzymes as Potential Antiviral Targets in Human Herpesviruses” (mBio, 2022).

Test [1] deals with T1, UL12 (Human alphaherpesvirus 1 strain 17, UniProt P04294).
T1 construct: full-length alkaline nuclease, purified from baculovirus-infected Sf9 cells
Nature of the test: PicoGreen dsDNA exonuclease assay. It counts as biochemical. As to conditions: 10 nM UL12, 1 nM linearized pUC19 DNA, 1 mM MgCl2, pH 8.2, 37°C.

Test [2] deals with T2, His-UL30ΔN42 (Human alphaherpesvirus 1 strain KOS, UniProt P04292).
T2 construct: gene UL30; His-tagged, N-terminal 42 residues deleted; gift from Donald Coen; no UL42 mentioned
T2 sequence (P04292 43-1235, stated change not applied): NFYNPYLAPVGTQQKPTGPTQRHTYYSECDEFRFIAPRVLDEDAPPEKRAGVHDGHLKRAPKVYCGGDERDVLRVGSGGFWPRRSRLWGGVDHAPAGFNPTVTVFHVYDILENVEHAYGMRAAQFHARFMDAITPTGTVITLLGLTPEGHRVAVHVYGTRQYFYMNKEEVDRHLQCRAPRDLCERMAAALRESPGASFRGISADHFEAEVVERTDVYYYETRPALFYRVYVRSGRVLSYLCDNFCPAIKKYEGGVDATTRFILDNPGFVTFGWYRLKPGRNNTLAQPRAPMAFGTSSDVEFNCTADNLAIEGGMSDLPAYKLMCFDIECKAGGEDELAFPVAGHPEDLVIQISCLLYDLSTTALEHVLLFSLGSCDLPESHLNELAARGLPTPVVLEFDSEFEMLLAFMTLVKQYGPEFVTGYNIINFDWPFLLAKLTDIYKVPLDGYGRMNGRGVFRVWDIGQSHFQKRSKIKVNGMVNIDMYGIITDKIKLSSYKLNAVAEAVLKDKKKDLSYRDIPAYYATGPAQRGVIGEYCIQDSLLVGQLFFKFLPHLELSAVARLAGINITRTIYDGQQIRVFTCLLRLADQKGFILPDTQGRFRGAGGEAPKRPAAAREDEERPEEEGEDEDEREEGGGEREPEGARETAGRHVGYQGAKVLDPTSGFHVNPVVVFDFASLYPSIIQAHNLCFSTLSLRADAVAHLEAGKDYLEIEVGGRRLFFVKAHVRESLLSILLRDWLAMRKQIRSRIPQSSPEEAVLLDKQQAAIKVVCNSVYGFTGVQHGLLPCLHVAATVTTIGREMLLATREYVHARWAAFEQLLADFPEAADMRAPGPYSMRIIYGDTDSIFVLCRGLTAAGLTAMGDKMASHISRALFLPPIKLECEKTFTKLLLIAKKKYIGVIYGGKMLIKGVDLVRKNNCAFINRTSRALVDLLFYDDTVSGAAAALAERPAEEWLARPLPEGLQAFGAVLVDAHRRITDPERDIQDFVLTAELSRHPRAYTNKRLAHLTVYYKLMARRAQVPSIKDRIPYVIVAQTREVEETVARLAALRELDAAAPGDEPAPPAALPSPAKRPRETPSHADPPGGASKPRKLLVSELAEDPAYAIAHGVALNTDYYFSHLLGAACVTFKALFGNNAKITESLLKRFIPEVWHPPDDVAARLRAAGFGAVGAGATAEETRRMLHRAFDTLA
Nature of the test: gel-based primer extension polymerase assay. It counts as biochemical. As to conditions: 50 nM enzyme, dNTPs, 10 mM MgCl2, pH 7.6, 37°C.

Test [3] concerns the target T3, ICP8Δ60 (Human alphaherpesvirus 1 strain KOS, UniProt P17470).
T3 construct: gene DBP; 60-residue deletion; source not described
As to the kind of experiment: thermal shift, nanoDSF (Tycho NT.[…]). It counts as binding. To be noted: 20x molar excess of compound to protein, 5 mM MgCl2, pH 7.5, without ssDNA.

For test [4], the target named is T4, UL15C (Human alphaherpesvirus 1 strain 17, UniProt P04295).
T4 construct: gene TRM3; C-terminal nuclease domain, residues 471 to 736, pET28b(+), from E. coli BL21(DE3); without UL28 and UL33
T4 sequence (P04295 471-735): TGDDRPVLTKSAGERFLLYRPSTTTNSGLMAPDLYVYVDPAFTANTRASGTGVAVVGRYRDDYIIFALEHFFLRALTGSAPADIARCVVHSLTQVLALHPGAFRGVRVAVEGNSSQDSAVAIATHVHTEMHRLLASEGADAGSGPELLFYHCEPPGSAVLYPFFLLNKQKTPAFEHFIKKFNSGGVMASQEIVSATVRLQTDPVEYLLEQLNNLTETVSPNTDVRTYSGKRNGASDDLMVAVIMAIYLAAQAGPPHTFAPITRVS
Nature of the test: dual-probe fluorescence nuclease assay. It counts as biochemical.

T1 sequence (P04294 whole entry, looked up): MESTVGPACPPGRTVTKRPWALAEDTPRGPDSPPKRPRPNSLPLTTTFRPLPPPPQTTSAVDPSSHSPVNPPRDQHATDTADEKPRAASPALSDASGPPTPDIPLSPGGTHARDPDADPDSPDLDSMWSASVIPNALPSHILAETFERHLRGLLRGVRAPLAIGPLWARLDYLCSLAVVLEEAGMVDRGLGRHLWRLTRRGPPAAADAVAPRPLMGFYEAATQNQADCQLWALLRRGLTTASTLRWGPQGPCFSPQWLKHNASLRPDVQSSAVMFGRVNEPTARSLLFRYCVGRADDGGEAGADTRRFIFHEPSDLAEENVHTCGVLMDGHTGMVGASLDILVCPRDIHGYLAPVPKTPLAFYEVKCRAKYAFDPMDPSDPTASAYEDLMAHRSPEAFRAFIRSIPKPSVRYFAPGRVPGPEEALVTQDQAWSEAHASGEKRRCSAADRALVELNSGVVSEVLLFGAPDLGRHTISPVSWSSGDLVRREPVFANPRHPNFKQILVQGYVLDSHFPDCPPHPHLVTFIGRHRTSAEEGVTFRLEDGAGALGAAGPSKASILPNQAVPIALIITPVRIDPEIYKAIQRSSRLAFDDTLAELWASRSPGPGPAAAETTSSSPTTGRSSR
T3 sequence (P17470 1-1136, stated change not applied): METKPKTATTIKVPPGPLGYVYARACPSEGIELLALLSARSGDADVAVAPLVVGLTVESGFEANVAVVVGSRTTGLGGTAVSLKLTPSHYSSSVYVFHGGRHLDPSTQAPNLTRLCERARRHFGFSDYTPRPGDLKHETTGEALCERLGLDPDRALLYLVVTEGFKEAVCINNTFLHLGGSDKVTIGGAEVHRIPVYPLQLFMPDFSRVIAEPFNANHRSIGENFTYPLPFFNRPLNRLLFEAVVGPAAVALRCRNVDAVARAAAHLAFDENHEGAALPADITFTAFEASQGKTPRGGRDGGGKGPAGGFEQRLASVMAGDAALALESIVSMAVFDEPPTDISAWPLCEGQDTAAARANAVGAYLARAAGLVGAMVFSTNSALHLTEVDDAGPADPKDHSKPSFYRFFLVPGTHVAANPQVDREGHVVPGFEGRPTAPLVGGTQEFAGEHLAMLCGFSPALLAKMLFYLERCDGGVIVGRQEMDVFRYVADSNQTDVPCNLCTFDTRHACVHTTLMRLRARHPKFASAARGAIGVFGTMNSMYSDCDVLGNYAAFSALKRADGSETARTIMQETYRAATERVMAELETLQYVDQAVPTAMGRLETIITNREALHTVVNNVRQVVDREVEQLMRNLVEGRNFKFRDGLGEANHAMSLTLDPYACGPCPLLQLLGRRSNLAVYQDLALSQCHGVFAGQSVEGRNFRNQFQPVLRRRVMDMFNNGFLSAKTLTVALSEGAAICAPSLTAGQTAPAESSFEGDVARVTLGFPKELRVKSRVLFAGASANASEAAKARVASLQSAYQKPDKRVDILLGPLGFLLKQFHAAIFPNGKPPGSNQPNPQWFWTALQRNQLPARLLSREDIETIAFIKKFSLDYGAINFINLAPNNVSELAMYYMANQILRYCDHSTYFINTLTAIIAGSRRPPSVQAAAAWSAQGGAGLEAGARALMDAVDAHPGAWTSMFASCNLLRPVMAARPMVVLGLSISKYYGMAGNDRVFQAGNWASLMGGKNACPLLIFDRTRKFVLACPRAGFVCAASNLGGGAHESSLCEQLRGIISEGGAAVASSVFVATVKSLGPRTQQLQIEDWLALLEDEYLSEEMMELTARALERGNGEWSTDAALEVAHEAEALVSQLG

With `CC(C)c1ccc(CNC(=O)c2ccc3cccnc3c2O)cc1` [AK-166], the “% inhibition at 20 μM” value in test [1] was “strong inhibition was observed for PPG, AK-157, and AK-166”.

One may read the inhibition as how much of the control response was suppressed. Low values mean a response near the control, high ones a response far below the control. For `O=C(Nc1ccc(Br)cc1)c1ccc2cccnc2c1O` [AK-157], in test [1], the “% inhibition at 20 μM” value was “strong inhibition was observed for PPG, AK-157, and AK-166”. Moreover, in test [2], the “inhibition at 20 μM” value was “only AK-157 and the known polymerase inhibitor phosphonoacetic acid (PAA) showed strong inhibition”. Consider `O=c1c(O)cccc2cc(O)c(O)c(O)c12` [purpurogallin], for which the “% inhibition at 20 μM” value in test [1] was “strong inhibition was observed for PPG, AK-157, and AK-166”. The Ti entry in test [3] is given as “RAL had no appreciable interactions with ICP8, while PPG showed a modest effect”. For the compound `Cc1nnc(C(=O)NC(C)(C)c2nc(C(=O)NCc3ccc(F)cc3)c(O)c(=O)n2C)o1` [raltegravir], the inhibition at 12.5 µM in test [4] was around 80%.
